± gives the expanded uncertainty stated by the source.
Assays:
[1] = for surface tension liquid-gas: Maximal bubble pressure; for mass density: 101.33 kPa, Liquid, Vibrating tube method
[2] = refractive index (Na D-line) (dimensionless); settings: 101.33 kPa, Liquid, Standard Abbe refractometry

CCn1cc[n+](CCOC)c1.N#C[N-]C#N [1-ethyl-3-(2-methoxyethyl)imidazolium dicyanamide]
Settings	mass density, [1] [kg/m3]	refractive index, [2]	surface tension liquid-gas, [1] [mN/m]
298.15 K	1113.6 ± 2.3	1.5053 ± 0.0031	51 ± 0.5
303.15 K	1110.21 ± 2.3	1.504 ± 0.0031	50.7 ± 0.5
308.15 K	1106.83 ± 2.3	1.5028 ± 0.0031	50.4 ± 0.5
313.15 K	1103.48 ± 2.3	1.5017 ± 0.0031	50.1 ± 0.5
318.15 K	1100.15 ± 2.3	1.5 ± 0.0031	49.8 ± 0.5
323.15 K	1096.84 ± 2.3	1.4989 ± 0.0031	49.5 ± 0.5
328.15 K	1093.53 ± 2.3	1.4977 ± 0.0031	49.3 ± 0.5
333.15 K	1090.26 ± 2.3	1.496 ± 0.0031	49.1 ± 0.5
338.15 K	1087 ± 2.3	1.4946 ± 0.0031	48.8 ± 0.5

Reference: the NIST ThermoML archive (doi:10.1016/j.jct.2017.03.016)
